# Patent US20230210984A1, “ADOPTIVE IMMUNOTHERAPY” (The Council of the Queensland Institute of Medical Research, priority 2019, published 2023)
# Legend:
# [1] = system: SNU719 gastric cancer xenograft; assay: SNU719 xenograft, anti-PD1 and allogenic EBV-specific T cells in vivo; design: species or system NOD/SCID mice
# Description: FIG. 6: Impact of PD1 inhibition on therapeutic efficacy of allogeneic EBV-specific cytotoxic T cells in vivo. (A) Heat-map representing gene signature of 326 genes observed RNA isolated from in the tumour infiltrating (TILs) CD8+ cells performed using NanoString Immune function panel. The TILS were isolated from SNU719 derived tumour xenograft from six independent mice (LT5-10) after 5 days post a single dose of TI_001 treatment when the tumour size reached 40 mm^2. The gene expression observed in TILS was compared to unstimulated (LT11) and EBV-pepmix stimulated (LT12). (B) Statistical representation comparing the (i) percentage of CD3+CD8+ population; (ii) percentage of CD8+PD1+ population; (iii) percentage of CD8+LAG3+ population; and (iv) percentage of CD8+ TIM3+ population of viable TILS (described in (A)) and compared to unstimulated T cells (T cell therapy). Error bars represent the ±SEM from three independent experiments. P-values were calculated using one-way ANOVA. Statistical representation of SNU719 derived xenograft indicating (C) tumour growth; (D) tumour weight (in gms) at ethical limit of tumour growth; (E) percent survival post T cell, anti-PD1 and combination of T cell and anti-PD1 therapy observed in respective treatment groups compared to mock (PBS) treated control group. The statistical significance of data of tumour weight was analysed by one-way ANOVA. The mice survival was monitored over the indicated period of time and the statistical significance of data was analysed by log-rank test: ns not significant, **p<0.01, ***p<0.001, and ****p<0.0001.
# A total of 12-24 female NOD/SCID mice (depending on the experiment) of 7-8 weeks old were used in this study. The mice were subjected to irradiation with 0.8 Gy cobalt-60 and after 4 hours, were subcutaneously injected with 5×10^6 cells of respective EBV-associated cancer cells with a 29-gauge needle. The mice were monitored for tumour growth, weight and body score thrice weekly. Once the tumour was palpable, the mice were randomised into respective groups and were treated with respective dosage of PBS or 20×10^6 tumour HLA matched allogenic EBV-specific T-cells. The tumour size in these mice were measured thrice weekly using the Vernier Calipers. To calculate tumour area the following formula was used: tumour area=B*S where B=largest tumour measurement and S=the smallest, based on two-dimensional caliper measurements as previously described.
# Based on these observations, we hypothesized that a combination of checkpoint inhibitor and T cell therapy may offer better therapeutic benefit against EBV-associated tumours.
# [2] = system: EBV-associated cell lines (nasopharyngeal and gastric cancer cell lines); assay: MTS cell viability assay, IC50 of inhibitors; format: cell-based
# Protocol: FIG. 9: Determining the IC50 value of MEK1/2 inhibitors. Representation of the cell viability performed using MTS assay after the indicated cell lines were incubated with 0.1 μM-5 μM of selumatinib (left panel) and trametinib (right panel) for 48 hours. The data are represented as the mean±SD from three independent experiments.
# FIG. 14: Determining the IC50 value of JQ1 inhibitors. Representation of the cell viability performed using MTS assay after the indicated cell lines were incubated with 0.5 μM-10 μM of JQ1 for 48 hours. The data are represented as the mean±SD from three independent experiments.
# Cell viability assay was performed using the CellTiter 96® AQueous one cell viability assay reagent (Promega, WI, USA) for three biological replicates per EBV-associated cancer cell lines in triplicate. Briefly, the cancer cells (target cells) were plated at a density of 5000 cells per well in an overall media volume of 200 μL on a 96-well tissue-culture plate (BD Falcon™). The effector AdE1-LMPpoly transfected T cells were freshly thawed in RPMI-1640 with 10% FCS and 120 IU/mL of recombinant IL-2 at 37° C. and […]. Post 24 hrs of plating and incubation at 37° C. and […], the effector T cells were mixed to the target cells at a gradient ratio of effector to target (E:T) of 5:1-100:1. The exact number of T cells (To) used per E:T ratio (ET) was independently used as control alongside PBS treated target cells (Es) and sole media (M0). After 24 hrs of incubation at 37° C. and […], MTS was added to each well (1:100 dilution in media) and was incubated for 1 hour following which the plate was centrifuged at 1,200×g at room temperature for 5 min and absorbance of the mixture at an optical density of 490 nm was measured via a microplate reader. The relative cell viability was calculated using the following formula: […]
# To determine the upregulation of MAPK pathway in EBV-associated solid cancers, we first identified the IC50 value of MEK1/2 inhibitors (AZD6244 or selumetanib and trematinib) across nasopharyngeal and gastric cancer cell lines (with drug concertation ranging from 0.1 μM-5 μM). […] In the next set of experiments, we wanted to determine the impact of MEK1/2 inhibition in combination with allogeneic EBV-specific T cells on EBV-associated solid cancers. As such, we treated the respective EBV-associated cell lines (both gastric and nasopharyngeal) individually or in combination with MEK1/2 inhibitors (both selumetanib and trematinib) and EBV-specific T cells.
# Similarly, we targeted MYC-dependent cancer intrinsic pathway using JQ1 inhibitor by first determining the IC50 value of the inhibitor across nasopharyngeal and gastric cancer cell lines (with drug concertation ranging from 0.5 μM-10 μM). […] To characterized the impact of JQ1 inhibition in combination with allogeneic EBV-specific T cells on EBV-associated cancer cells, we used IC25 value JQ1 (2.5 μM) alongside an effector to target ratio of 25:1 of the respective HLA matched allogeneic EBV-specific T cells in vitro. […] We also performed phenotypic characterization, using flow cytometry, of SNU719 and C666.1 cells after 16 hours of individual and dual treatment in vitro.
Compound,"SNU719 gastric cancer outgrowth ([1]; Nivolumab 24 hrs after T cell infusion, combination vs monotherapy and mock-treated groups, p<0.0001)",tumour size (tumour weight) ([1]; combination with T cells vs monotherapy groups),"survival post therapy ([1]; combination with T cells vs monotherapy or mock-treated group, p<0.0001)","better survival in comparison to only T cell treated group ([1]; combination with T cells, p<0.01) [fold]","IC50 ([2]; 48 h, read-out: IC50 (~50% reduction in cell viability)) [nM]",IC25 value (sub IC50 value) ([2]; concentration chosen for in vitro combination treatment) [nM]
Nivolumab: anti-PD1 antibody,significantly reduced,significantly reduced tumour size,significantly improved,~2,,
CC(=O)Nc1cccc(-n2c(=O)n(C3CC3)c(=O)c3c(Nc4ccc(I)cc4F)n(C)c(=O)c(C)c32)c1 [trematinib],,,,,~2500,1000
